Assay results reported in patent US20180325914A1, “INCREASING STORAGE OF VITAMIN A, VITAMIN D AND/OR LIPIDS” (Salk Institute for Biological Studies, priority 2014, published 2018).

Tested on: primary HSCs

In the case of `Cc1sc2c(c1C)C(c1ccc(Cl)cc1)=N[C@@H](CC(=O)OC(C)(C)C)c1nnc(C)n1-2` [JQ1, (S)-tert-butyl 2-(4-(4-chlorophenyl)-2,3,9-trimethyl-6H-thieno[3,2-f][1,2,4]triazolo[4,3-a][1,4]diazepin-6-yl)acetate], the “Ccnb2 value_2” value (mRNA-Seq, sample Day_6_JQ1) is reported as 22.7753, the “Ccnf value_2” value (mRNA-Seq, sample Day_6_JQ1) is reported as 11.7934 and the “Cdc45 value_2” value (mRNA-Seq, sample Day_6_JQ1) is reported as 7.419. The “Cdca3 value_2” value (mRNA-Seq, sample Day_6_JQ1) was 31.4087, the “Cdk1 value_2” value (mRNA-Seq, sample Day_6_JQ1) was 28.779 and the “Cdkn2c value_2” value (mRNA-Seq, sample Day_6_JQ1) was 16.1063. For the same compound, the “Cend1 value_2” value (mRNA-Seq, sample Day_6_JQ1) was 7.615, the “Cenpe value_2” value (mRNA-Seq, sample Day_6_JQ1) was 9.129 and the “Cenph value_2” value (mRNA-Seq, sample Day_6_JQ1) was 8.899. For the same compound, the “Chaf1a value_2” value (mRNA-Seq, sample Day_6_JQ1) was 16.8473, the “Ckap2l value_2” value (mRNA-Seq, sample Day_6_JQ1) was 18.5683 and the “Ckb value_2” value (mRNA-Seq, sample Day_6_JQ1) was 310.111. For the same compound, the “Cks1b value_2” value (mRNA-Seq, sample Day_6_JQ1) was 113.98, the “Colec11 value_2” value (mRNA-Seq, sample Day_6_JQ1) was 68.8593 and the “Cpt1c value_2” value (mRNA-Seq, sample Day_6_JQ1) was 30.5415. For the same compound, the “Ctnnbip1 value_2” value (mRNA-Seq, sample Day_6_JQ1) was 14.2922, the “Cyb5r3 value_2” value (mRNA-Seq, sample Day_6_JQ1) was 256.005 and the “Cyp1b1 value_2” value (mRNA-Seq, sample Day_6_JQ1) was 100.635. The “D2Ertd750e value_2” value (mRNA-Seq, sample Day_6_JQ1) was 10.3027, the “Dact3 value_2” value (mRNA-Seq, sample Day_6_JQ1) was 26.3749 and the “Dag1 value_2” value (mRNA-Seq, sample Day_6_JQ1) was 162.916. For the same compound, the “Dcbld2 value_2” value (mRNA-Seq, sample Day_6_JQ1) was 73.5335, the “Dcxr value_2” value (mRNA-Seq, sample Day_6_JQ1) was 36.0469 and the “Ddr2 value_2” value (mRNA-Seq, sample Day_6_JQ1) was 63.2059. The “Diap3 value_2” value (mRNA-Seq, sample Day_6_JQ1) was 10.7413, the “Dlgap5 value_2” value (mRNA-Seq, sample Day_6_JQ1) was 10.9428 and the “Dzip3 value_2” value (mRNA-Seq, sample Day_6_JQ1) was 8.399. For the same compound, the “E2f1 value_2” value (mRNA-Seq, sample Day_6_JQ1) was 21.0746, the “Elovl5 value_2” value (mRNA-Seq, sample Day_6_JQ1) was 65.5058 and the “Eno2 value_2” value (mRNA-Seq, sample Day_6_JQ1) was 9.68. For the same compound, the “Ephb3 value_2” value (mRNA-Seq, sample Day_6_JQ1) was 16.6667, the “Ephx1 value_2” value (mRNA-Seq, sample Day_6_JQ1) was 132.832 and the “Evc value_2” value (mRNA-Seq, sample Day_6_JQ1) was 10.4125. For the same compound, the “Ext2 value_2” value (mRNA-Seq, sample Day_6_JQ1) was 87.8458, the “Fam171b value_2” value (mRNA-Seq, sample Day_6_JQ1) was 12.8947 and the “Fbxo5 value_2” value (mRNA-Seq, sample Day_6_JQ1) was 11.9069. The “Fignl1 value_2” value (mRNA-Seq, sample Day_6_JQ1) was 12.5326, the “Foxm1 value_2” value (mRNA-Seq, sample Day_6_JQ1) was 15.7609 and the “Fscn1 value_2” value (mRNA-Seq, sample Day_6_JQ1) was 385.037. The “Gas1 value_2” value (mRNA-Seq, sample Day_6_JQ1) was 80.3077, the “Gmnn value_2” value (mRNA-Seq, sample Day_6_JQ1) was 19.8433 and the “Gpm6b value_2” value (mRNA-Seq, sample Day_6_JQ1) was 19.7607. For the same compound, the “Gpx1 value_2” value (mRNA-Seq, sample Day_6_JQ1) was 332.885, the “Gstt3 value_2” value (mRNA-Seq, sample Day_6_JQ1) was 14.4369 and the “Gyg value_2” value (mRNA-Seq, sample Day_6_JQ1) was 82.2854. For the same compound, the “Hadh value_2” value (mRNA-Seq, sample Day_6_JQ1) was 56.1898, the “Hand2 value_2” value (mRNA-Seq, sample Day_6_JQ1) was 110.598 and the “Hmmr value_2” value (mRNA-Seq, sample Day_6_JQ1) was 17.0843. For the same compound, the “Id3 value_2” value (mRNA-Seq, sample Day_6_JQ1) was 1063.75, the “Ildr2 value_2” value (mRNA-Seq, sample Day_6_JQ1) was 11.4416 and the “Kif2c value_2” value (mRNA-Seq, sample Day_6_JQ1) was 11.8118. For the same compound, the “Kif4 value_2” value (mRNA-Seq, sample Day_6_JQ1) was 7.332, the “Kif11 value_2” value (mRNA-Seq, sample Day_6_JQ1) was 10.8132 and the “Kif20b value_2” value (mRNA-Seq, sample Day_6_JQ1) was 7.299. The “Kif22 value_2” value (mRNA-Seq, sample Day_6_JQ1) was 14.9542, the “Lamb2 value_2” value (mRNA-Seq, sample Day_6_JQ1) was 41.1365 and the “Lhfp value_2” value (mRNA-Seq, sample Day_6_JQ1) was 371.966. The “Lphn1 value_2” value (mRNA-Seq, sample Day_6_JQ1) was 20.1469, the “Melk value_2” value (mRNA-Seq, sample Day_6_JQ1) was 7.467 and the “Mfge8 value_2” value (mRNA-Seq, sample Day_6_JQ1) was 379.144. For the same compound, the “Mki67 value_2” value (mRNA-Seq, sample Day_6_JQ1) was 27.8603, the “Mmp11 value_2” value (mRNA-Seq, sample Day_6_JQ1) was 36.1215 and the “Mras value_2” value (mRNA-Seq, sample Day_6_JQ1) was 15.4481. For the same compound, the “Mrc2 value_2” value (mRNA-Seq, sample Day_6_JQ1) was 111.626, the “Msx1 value_2” value (mRNA-Seq, sample Day_6_JQ1) was 5.962 and the “Ndc80 value_2” value (mRNA-Seq, sample Day_6_JQ1) was 8.604. For the same compound, the “Nkd1 value_2” value (mRNA-Seq, sample Day_6_JQ1) was 16.9471, the “Nuf2 value_2” value (mRNA-Seq, sample Day_6_JQ1) was 9.227 and the “Oat value_2” value (mRNA-Seq, sample Day_6_JQ1) was 213.454. For the same compound, the “Osbpl5 value_2” value (mRNA-Seq, sample Day_6_JQ1) was 41.3593, the “Osr1 value_2” value (mRNA-Seq, sample Day_6_JQ1) was 16.6329 and the “Pbx1 value_2” value (mRNA-Seq, sample Day_6_JQ1) was 48.4716. For the same compound, the “Pld3 value_2” value (mRNA-Seq, sample Day_6_JQ1) was 190.597, the “Plxdc2 value_2” value (mRNA-Seq, sample Day_6_JQ1) was 26.1768 and the “Prc1 value_2” value (mRNA-Seq, sample Day_6_JQ1) was 30.6759. For the same compound, the “Ptgr1 value_2” value (mRNA-Seq, sample Day_6_JQ1) was 25.0296, the “Pxmp4 value_2” value (mRNA-Seq, sample Day_6_JQ1) was 17.7124 and the “Pygb value_2” value (mRNA-Seq, sample Day_6_JQ1) was 42.1403. For the same compound, the “Racgap1 value_2” value (mRNA-Seq, sample Day_6_JQ1) was 22.85, the “Rarb value_2” value (mRNA-Seq, sample Day_6_JQ1) was 70.6683 and the “S100a6 value_2” value (mRNA-Seq, sample Day_6_JQ1) was 1608.42. For the same compound, the “Scrn1 value_2” value (mRNA-Seq, sample Day_6_JQ1) was 7.911, the “Sipa1l1 value_2” value (mRNA-Seq, sample Day_6_JQ1) was 28.6555 and the “Slit2 value_2” value (mRNA-Seq, sample Day_6_JQ1) was 14.8622. For the same compound, the “Smc2 value_2” value (mRNA-Seq, sample Day_6_JQ1) was 19.557, the “Smc4 value_2” value (mRNA-Seq, sample Day_6_JQ1) was 33.8803 and the “Snap47 value_2” value (mRNA-Seq, sample Day_6_JQ1) was 103.523. For the same compound, the “Spc24 value_2” value (mRNA-Seq, sample Day_6_JQ1) was 8.494, the “Spry1 value_2” value (mRNA-Seq, sample Day_6_JQ1) was 44.5222 and the “St5 value_2” value (mRNA-Seq, sample Day_6_JQ1) was 35.2195. For the same compound, the “Tacc3 value_2” value (mRNA-Seq, sample Day_6_JQ1) was 18.1794, the “Tfdp2 value_2” value (mRNA-Seq, sample Day_6_JQ1) was 10.5854 and the “Tinagl1 value_2” value (mRNA-Seq, sample Day_6_JQ1) was 326.013. For the same compound, the “Tmem53 value_2” value (mRNA-Seq, sample Day_6_JQ1) was 17.4035, the “Tmsb10 value_2” value (mRNA-Seq, sample Day_6_JQ1) was 1117.74 and the “Trim59 value_2” value (mRNA-Seq, sample Day_6_JQ1) was 27.2401. For the same compound, the “Tro value_2” value (mRNA-Seq, sample Day_6_JQ1) was 7.307, the “Trp53inp2 value_2” value (mRNA-Seq, sample Day_6_JQ1) was 99.8045 and the “Twist1 value_2” value (mRNA-Seq, sample Day_6_JQ1) was 19.9784. The “Uhrf1 value_2” value (mRNA-Seq, sample Day_6_JQ1) was 16.7743, the “Vgll3 value_2” value (mRNA-Seq, sample Day_6_JQ1) was 95.3643 and the “Wdr35 value_2” value (mRNA-Seq, sample Day_6_JQ1) was 9.874. For the same compound, the “Wt1 value_2” value (mRNA-Seq, sample Day_6_JQ1) was 29.0084, the “Zbtb7c value_2” value (mRNA-Seq, sample Day_6_JQ1) was 7.895 and the “number of genes upregulated during HSC activation (more than 900) that are suppressed” value (primary HSCs, days 3 and 6 vs day 1, JQ1 500 nM) was “more than 400 genes”. The “induction of key marker genes Col1a1, Acta2, Col1a2 and Des during HSC activation” value (primary HSCs, JQ1 500 nM, mRNA-Seq and qRT-PCR) was “drastically abolished”.
